Results reported in patent publication US10660877B2 (BRISTOL-MYERS SQUIBB COMPANY, priority 2016, dated 2020).
Where two headings read alike, the source gives them in different places.

Legend:
human TLR7 = human TLR7 (Homo sapiens (Human), UniProt Q9NYK1); test: TLR7 inhibition reporter assay (HEK-Blue cells, SEAP reporter, gardiquimod stimulation); type: cell-based
human TLR8 = human TLR8 (Homo sapiens (Human), UniProt Q9NR97); test: TLR8 inhibition reporter assay (HEK-Blue cells, SEAP reporter, R848 stimulation);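 also: compounds tested from 0.05 nM to 50 µM, 22 h at 37 °C, SEAP measured with HEK-Blue Detection, inhibition relative to agonist plus DMSO versus a known inhibitor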
Chain of human TLR8 (Q9NR97 27-1041): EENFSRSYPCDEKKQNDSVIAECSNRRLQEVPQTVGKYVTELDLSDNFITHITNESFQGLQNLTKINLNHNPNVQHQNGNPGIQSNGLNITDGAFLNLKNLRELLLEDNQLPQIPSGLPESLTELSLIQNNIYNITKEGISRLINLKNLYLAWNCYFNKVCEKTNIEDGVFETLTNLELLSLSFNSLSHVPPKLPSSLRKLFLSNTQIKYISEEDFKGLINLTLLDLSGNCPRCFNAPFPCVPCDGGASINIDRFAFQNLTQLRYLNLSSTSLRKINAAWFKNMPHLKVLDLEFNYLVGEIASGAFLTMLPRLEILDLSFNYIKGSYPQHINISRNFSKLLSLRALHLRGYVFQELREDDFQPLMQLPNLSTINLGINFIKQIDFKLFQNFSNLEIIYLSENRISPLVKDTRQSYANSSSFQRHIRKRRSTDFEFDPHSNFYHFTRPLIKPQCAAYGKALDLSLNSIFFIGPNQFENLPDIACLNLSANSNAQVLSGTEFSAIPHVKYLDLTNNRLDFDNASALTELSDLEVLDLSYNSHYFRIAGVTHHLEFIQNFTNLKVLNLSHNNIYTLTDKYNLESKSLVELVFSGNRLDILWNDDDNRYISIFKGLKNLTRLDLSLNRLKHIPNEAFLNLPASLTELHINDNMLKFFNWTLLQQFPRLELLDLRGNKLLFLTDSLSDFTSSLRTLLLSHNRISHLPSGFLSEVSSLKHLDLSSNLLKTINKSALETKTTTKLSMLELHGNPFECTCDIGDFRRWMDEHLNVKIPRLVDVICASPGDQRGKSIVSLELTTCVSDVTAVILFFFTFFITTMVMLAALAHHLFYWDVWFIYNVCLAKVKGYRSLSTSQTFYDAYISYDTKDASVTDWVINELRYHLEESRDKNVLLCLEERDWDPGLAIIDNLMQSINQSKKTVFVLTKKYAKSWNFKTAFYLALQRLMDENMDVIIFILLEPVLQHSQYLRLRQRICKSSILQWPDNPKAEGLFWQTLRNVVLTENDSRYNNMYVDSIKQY

human TLR9 = human TLR9 (Homo sapiens (Human), UniProt Q9NR96); test: TLR9 inhibition reporter assay (HEK-Blue cells, SEAP reporter, ODN2006 stimulation);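 also: compounds tested over 0.05 nM to 50 µM, 22 h incubation, inhibition taken as SEAP signal drop from agonist plus DMSO wells toward a known inhibitor control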
Chain of human TLR9 (Q9NR96 26-1032): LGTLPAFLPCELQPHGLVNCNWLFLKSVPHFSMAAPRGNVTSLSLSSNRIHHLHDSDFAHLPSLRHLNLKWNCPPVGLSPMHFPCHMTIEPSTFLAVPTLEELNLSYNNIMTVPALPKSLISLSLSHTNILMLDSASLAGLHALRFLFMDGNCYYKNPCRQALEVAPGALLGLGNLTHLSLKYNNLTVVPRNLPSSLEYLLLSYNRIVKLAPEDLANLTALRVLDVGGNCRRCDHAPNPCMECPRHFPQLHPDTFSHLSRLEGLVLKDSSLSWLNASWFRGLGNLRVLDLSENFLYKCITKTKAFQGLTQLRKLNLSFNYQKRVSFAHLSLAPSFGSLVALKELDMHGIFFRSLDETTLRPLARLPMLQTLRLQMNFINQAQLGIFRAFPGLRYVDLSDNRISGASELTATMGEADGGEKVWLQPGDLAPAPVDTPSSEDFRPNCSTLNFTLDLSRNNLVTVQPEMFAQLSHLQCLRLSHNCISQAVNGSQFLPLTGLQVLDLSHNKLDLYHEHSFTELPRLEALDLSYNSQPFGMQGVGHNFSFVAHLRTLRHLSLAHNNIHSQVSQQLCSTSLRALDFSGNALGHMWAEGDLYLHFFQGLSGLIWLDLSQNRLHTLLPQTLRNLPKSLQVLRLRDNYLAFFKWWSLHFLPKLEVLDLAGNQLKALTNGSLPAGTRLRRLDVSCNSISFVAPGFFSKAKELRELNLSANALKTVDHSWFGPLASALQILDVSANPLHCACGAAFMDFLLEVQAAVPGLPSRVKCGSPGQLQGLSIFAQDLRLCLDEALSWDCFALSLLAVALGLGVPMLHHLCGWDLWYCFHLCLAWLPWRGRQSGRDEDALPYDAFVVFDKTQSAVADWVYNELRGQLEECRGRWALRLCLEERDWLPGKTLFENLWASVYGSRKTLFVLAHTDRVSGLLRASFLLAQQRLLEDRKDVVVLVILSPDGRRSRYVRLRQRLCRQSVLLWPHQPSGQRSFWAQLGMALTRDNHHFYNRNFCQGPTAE

[1] = HEK-Blue cells overexpressing human TLR7, gardiquimod 7.5 μM
[2] = read-out: TLR8 IC50, HEK-Blue cells overexpressing human TLR8, R848 15.9 μM
[3] = read-out: TLR9 IC50, HEK-Blue cells overexpressing human TLR9, ODN2006 5 nM
[4] = TLR8 IC50, HEK-Blue cells overexpressing human TLR8, R848 15.9 μM
[5] = TLR9 IC50, HEK-Blue cells overexpressing human TLR9, ODN2006 5 nM

Chain of human TLR7 (Q9NYK1 27-1049): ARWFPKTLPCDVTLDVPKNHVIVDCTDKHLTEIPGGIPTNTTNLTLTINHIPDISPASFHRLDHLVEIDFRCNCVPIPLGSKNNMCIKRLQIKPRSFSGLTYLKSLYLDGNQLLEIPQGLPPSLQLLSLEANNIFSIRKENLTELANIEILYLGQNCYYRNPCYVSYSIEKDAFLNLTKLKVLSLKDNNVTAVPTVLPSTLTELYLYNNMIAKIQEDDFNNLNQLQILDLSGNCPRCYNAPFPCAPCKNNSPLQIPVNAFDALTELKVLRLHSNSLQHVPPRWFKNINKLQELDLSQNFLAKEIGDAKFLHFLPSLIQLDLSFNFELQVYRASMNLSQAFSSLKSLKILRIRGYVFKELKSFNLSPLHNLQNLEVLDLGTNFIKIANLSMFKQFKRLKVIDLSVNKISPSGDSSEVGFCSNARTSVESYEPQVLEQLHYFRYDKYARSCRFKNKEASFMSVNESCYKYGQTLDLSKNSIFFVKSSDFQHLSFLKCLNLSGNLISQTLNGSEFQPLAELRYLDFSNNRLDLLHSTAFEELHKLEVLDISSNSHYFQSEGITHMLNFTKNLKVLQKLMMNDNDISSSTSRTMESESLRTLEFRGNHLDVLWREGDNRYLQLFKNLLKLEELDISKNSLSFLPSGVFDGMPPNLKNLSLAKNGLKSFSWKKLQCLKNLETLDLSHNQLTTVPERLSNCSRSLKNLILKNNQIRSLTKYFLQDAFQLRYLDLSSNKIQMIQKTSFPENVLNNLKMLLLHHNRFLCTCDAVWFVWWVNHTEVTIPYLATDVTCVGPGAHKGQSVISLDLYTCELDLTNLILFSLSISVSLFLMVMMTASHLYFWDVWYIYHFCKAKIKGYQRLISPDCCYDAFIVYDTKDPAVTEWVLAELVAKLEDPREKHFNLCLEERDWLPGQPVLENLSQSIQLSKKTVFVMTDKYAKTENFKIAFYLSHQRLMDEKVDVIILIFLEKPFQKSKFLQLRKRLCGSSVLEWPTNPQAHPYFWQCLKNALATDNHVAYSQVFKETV

| Structure (SMILES) | IC50 (human TLR7; [1]) [nM] | IC50 (human TLR8; [2]) [nM] | IC50 (human TLR9; [3]) [nM] | IC50 (human TLR7; HEK-Blue cells, gardiquimod 7.5 μM) [nM] | IC50 (human TLR8; read-out: TLR8 IC50, HEK-Blue cells, R848 15.9 μM) [nM] | IC50 (human TLR9; read-out: TLR9 IC50, HEK-Blue cells, ODN2006 5 nM) [nM] | IC50 (human TLR8; [4]) [nM] | IC50 (human TLR9; [5]) [nM] |
| --- | --- | --- | --- | --- | --- | --- | --- | --- |
| Cc1cc(-c2[nH]c3ccc(C4CCN(C)CC4)cc3c2C(C)C)c(F)cn1 [Example 635, 2-(5-fluoro-2-methylpyridin-4-yl)-3-isopropyl-5-(1-methylpiperidin-4-yl)-1H-indole] | 5.6 | 5.1 | 3690 |  |  |  |  |  |
| Cc1cc(-c2[nH]c3ccc(C4CCN(S(=O)(=O)c5cccnc5)CC4)cc3c2C(C)C)ccn1 [Example 543, 3-isopropyl-2-(2-methylpyridin-4-yl)-5-(1-(pyridin-3-ylsulfonyl)piperidin-4-yl)-1H-indole] | 119 | 206 | 9750 |  |  |  |  |  |
| CCc1c(-c2ccnc(C)c2)[nH]c2ccc(C3CCN(C(=O)C4CCN(C)CC4)CC3)cc12 [Example 593, (4-(3-ethyl-2-(2-methylpyridin-4-yl)-1H-indol-5-yl)piperidin-1-yl)(1-methylpiperidin-4-yl)methanone] | 43 | 17.4 | 513 |  |  |  |  |  |
| Cc1cc(-c2[nH]c3ccc(C4CCN(C(=O)CNC56CC7CC(CC(O)(C7)C5)C6)CC4)cc3c2C(C)C)cc(C)n1 [Example 343, 1-(4-(2-(2,6-dimethylpyridin-4-yl)-3-isopropyl-1H-indol-5-yl)piperidin-1-yl)-2-((3-hydroxyadamantan-1-yl)amino)ethan-1-one] | 9.8 | 20.3 | 685 |  |  |  |  |  |
| COc1ncc(CN2CCC(c3ccc4[nH]c(-c5cc(C)ncc5F)c(C(C)C)c4c3)CC2)cn1 [Example 733, 2-(5-fluoro-2-methylpyridin-4-yl)-3-isopropyl-5-(1-((2-methoxypyrimidin-5-yl)methyl)piperidin-4-yl)-1H-indole] | 11.1 | 4.2 | 1810 |  |  |  |  |  |
| CCc1c(-c2ccnc(OC)c2)[nH]c2ccc(C3CCN([C@H]4CCCNCC4)CC3)cc12 [Example 794, (S)-5-(1-(azepan-4-yl)piperidin-4-yl)-3-ethyl-2-(2-methoxypyridin-4-yl)-1H-indole] | 674 | 40.9 | 1100 |  |  |  |  |  |
| Cc1cc(-c2[nH]c3ccc(C4CCN(C(=O)C5CC(=O)N(C)C5)CC4)cc3c2CC(F)F)cc(C)n1 (stereo not drawn) [Example 534, 4-(4-(3-(2,2-difluoroethyl)-2-(2,6-dimethylpyridin-4-yl)-1H-indol-5-yl)piperidine-1-carbonyl)-1-methylpyrrolidin-2-one] | 63.8 | 660 | 45400 |  |  |  |  |  |
| Cc1cc(-c2[nH]c3ccc(C4CCN(C(=O)CNCC5CC5)CC4)cc3c2C(C)C)cc(C)n1 [Example 339, 2-((cyclopropylmethyl)amino)-1-(4-(2-(2,6-dimethylpyridin-4-yl)-3-isopropyl-1H-indol-5-yl)piperidin-1-yl)ethan-1-one] | 2.8 | 13.3 | 869 |  |  |  |  |  |
| Cc1cc(-c2[nH]c3ccc(C4CCN(C(=O)CN(C(C)C)C(C)C)CC4)cc3c2C(C)C)cc(C)n1 [Example 153, 2-(diisopropylamino)-1-(4-(2-(2,6-dimethylpyridin-4-yl)-3-isopropyl-1H-indol-5-yl)piperidin-1-yl)ethan-1-one] | 9.9 | 26 | 675 |  |  |  |  |  |
| Cc1cc(-c2[nH]c3ccc(C4CCN(C(=O)CN(CCO)C(C)C)CC4)cc3c2C(C)C)cc(C)n1 [Example 415, 1-(4-(2-(2,6-dimethylpyridin-4-yl)-3-isopropyl-1H-indol-5-yl)piperidin-1-yl)-2-((2-hydroxyethyl)(isopropyl)amino)ethan-1-one] | 7.9 | 39.7 | 1860 |  |  |  |  |  |
| CNCCN1CCC(c2ccc3[nH]c(-c4ccnc(N5CCN(C)CC5)c4)c(C)c3c2)CC1 [Example 746, N-methyl-2-(4-(3-methyl-2-(2-(4-methylpiperazin-1-yl)pyridin-4-yl)-1H-indol-5-yl)piperidin-1-yl)ethan-1-amine] | 4030 | > 50000 | 69 |  |  |  |  |  |
| CCc1c(-c2ccnc(C)c2)[nH]c2ccc(C3CCN(C(=O)CCC4CCNCC4)CC3)cc12 [Example 632, 1-(4-(3-ethyl-2-(2-methylpyridin-4-yl)-1H-indol-5-yl)piperidin-1-yl)-3-(piperidin-4-yl)propan-1-one] | 91.8 | 35.8 | 795 |  |  |  |  |  |
| Cc1cc(-c2[nH]c3ccc(C4CCN(C(=O)[C@H]5CCC[C@@]5(C)N)CC4)cc3c2C(C)C)ccn1 [Example 569, ((1S,2R)-2-amino-2-methylcyclopentyl)(4-(3-isopropyl-2-(2-methylpyridin-4-yl)-1H-indol-5-yl)piperidin-1-yl)methanone] | 14.4 | 15 | 912 |  |  |  |  |  |
| Cc1cc(-c2[nH]c3ccc(C4CCN(C(=O)CN5CCCC(C)(C)C5)CC4)cc3c2C(C)C)cc(C)n1 [Example 358, 2-(3,3-dimethylpiperidin-1-yl)-1-(4-(2-(2,6-dimethylpyridin-4-yl)-3-isopropyl-1H-indol-5-yl)piperidin-1-yl)ethan-1-one] | 12.9 | 23.7 | 943 |  |  |  |  |  |
| Cc1cc(-c2[nH]c3cc(C(F)(F)F)c(C4CCNCC4)cc3c2C(C)C)ccn1 [Example 74, 3-isopropyl-2-(2-methylpyridin-4-yl)-5-(piperidin-4-yl)-6-(trifluoromethyl)-1H-indole] | 13.1 | 437 | 1160 |  |  |  |  |  |
| Cc1cc(-c2[nH]c3ccc(C4CCN(C(=O)CNCC(C)(C)N5CCOCC5)CC4)cc3c2C(C)C)cc(C)n1 [Example 371, 1-(4-(2-(2,6-dimethylpyridin-4-yl)-3-isopropyl-1H-indol-5-yl)piperidin-1-yl)-2-((2-methyl-2-morpholinopropyl)amino)ethan-1-one] | 3.7 |  |  |  |  |  | 20.4 | 241 |

Next, values leading:

| IC50 (human TLR7; [1]) [nM] | IC50 (human TLR8; [2]) [nM] | IC50 (human TLR9; [3]) [nM] | IC50 (human TLR7; HEK-Blue cells, gardiquimod 7.5 μM) [nM] | IC50 (human TLR8; read-out: TLR8 IC50, HEK-Blue cells, R848 15.9 μM) [nM] | IC50 (human TLR9; read-out: TLR9 IC50, HEK-Blue cells, ODN2006 5 nM) [nM] | IC50 (human TLR8; [4]) [nM] | IC50 (human TLR9; [5]) [nM] | Structure (SMILES) |
| --- | --- | --- | --- | --- | --- | --- | --- | --- |
| 11.1 | 21.7 | 663 |  |  |  |  |  | Cc1cc(-c2[nH]c3ccc(C4CCN(C(=O)C5(C)CCN(C)CC5)CC4)cc3c2C(C)C)cc(C)n1 [Example 176, (1,4-dimethylpiperidin-4-yl)(4-(2-(2,6-dimethylpyridin-4-yl)-3-isopropyl-1H-indol-5-yl)piperidin-1-yl)methanone] |
| 1.5 | 2 | 1350 |  |  |  |  |  | Cc1cc(-c2[nH]c3cc(F)c(C4CCNCC4)cc3c2C(C)C)c(F)cn1 [Example 79, 6-fluoro-2-(5-fluoro-2-methylpyridin-4-yl)-3-isopropyl-5-(piperidin-4-yl)-1H-indole] |
| 2.8 | 3.2 | 3140 |  |  |  |  |  | CNC(=O)CN1CCC(c2ccc3[nH]c(-c4cc(C)ncc4F)c(C(C)C)c3c2)CC1 [Example 654, 2-(4-(2-(5-fluoro-2-methylpyridin-4-yl)-3-isopropyl-1H-indol-5-yl)piperidin-1-yl)-N-methylacetamide] |
| 13.1 | 12 | 971 |  |  |  |  |  | CNCCC(=O)N1CCC(c2ccc3[nH]c(-c4ccnc(C)c4)c(C(C)C)c3c2)CC1 [Example 570, 1-(4-(3-isopropyl-2-(2-methylpyridin-4-yl)-1H-indol-5-yl)piperidin-1-yl)-3-(methylamino)propan-1-one] |
| 834 | 1240 | 6940 |  |  |  |  |  | CNC(=O)CN1CCC(c2ccc3[nH]c(-c4cc(C)nc(F)c4)c(C(C)C)c3c2)CC1 [Example 498, 2-(4-(2-(2-fluoro-6-methylpyridin-4-yl)-3-isopropyl-1H-indol-5-yl)piperidin-1-yl)-N-methylacetamide] |
|  |  |  | 469 | 53 | 2450 |  |  | CCc1c(-c2ccnc(C)c2)[nH]c2ccc(C3CCN(CCC(F)(F)F)CC3)cc12 [Example 863, 3-ethyl-2-(2-methylpyridin-4-yl)-5-(1-(3,3,3-trifluoropropyl)piperidin-4-yl)-1H-indole] |
| 39.2 |  |  |  |  |  | 18.3 | 363 | CCc1c(-c2ccnc(C)c2)[nH]c2ccc(C3CCN(C(=O)[C@@H]4CCCCN4)CC3)cc12 [Example 628, (S)-(4-(3-ethyl-2-(2-methylpyridin-4-yl)-1H-indol-5-yl)piperidin-1-yl)(piperidin-2-yl)methanone] |
| 4.7 | 11.2 | 248 |  |  |  |  |  | CCc1c(-c2cc(C)nc(C)c2)[nH]c2ccc(C3CCNCC3)cc12 [Example 2, 2-(2,6-dimethylpyridin-4-yl)-3-ethyl-5-(piperidin-4-yl)-1H-indole] |
| 1.3 |  |  |  |  |  | 20 | 1010 | Cc1cc(-c2[nH]c3ccc(C4CCNCC4(F)F)cc3c2C(C)C)cc(C)n1 (single isomer, unassigned) [Example 489B, 5-(3,3-difluoropiperidin-4-yl)-2-(2,6-dimethylpyridin-4-yl)-3-isopropyl-1H-indole] |
| 967 | 136 | 751 |  |  |  |  |  | CCc1c(-c2ccnc(Cl)c2)[nH]c2ccc(C3CCN(C4CCN(CC(C)C)CC4)CC3)cc12 [Example 758, 2-(2-chloropyridin-4-yl)-3-ethyl-5-(1′-isobutyl-[1,4′-bipiperidin]-4-yl)-1H-indole] |
| 5.2 | 21.9 | 1360 |  |  |  |  |  | CCOCCNCC(=O)N1CCC(c2ccc3[nH]c(-c4cc(C)nc(C)c4)c(C(C)C)c3c2)CC1 [Example 349, 1-(4-(2-(2,6-dimethylpyridin-4-yl)-3-isopropyl-1H-indol-5-yl)piperidin-1-yl)-2-((2-ethoxyethyl)amino)ethan-1-one] |
